Data: paper PMC10033419, “Blocking NS3–NS4B interaction inhibits dengue virus in non-human primates” (Nature, 2023)

System: DENV-1/45AZ5
Assay: NHP DENV-1 study, serum viral RNA RT-qPCR
Type: in vivo, rhesus macaques
Settings: for qRT-PCR Assay Average GE/mL: LOQ 100 GE/reaction
Experimental: WRAIR is fully accredited by AAALAC International.
Serum samples from macaques were checked for the presence of DENV-1 RNA. Viral RNA for RT–qPCR was extracted from 100–200 µl of serum using the QIAcube instrumentation and the QIAGEN Viral RNA extraction kits. The primers and fluorogenic probes used in the RT–qPCR assays have been previously described[63],[64]. DENV-1 RNA was detected in a 25 µl reaction containing 5 µl of extracted RNA sample, 10 pmol of dengue-specific primers and 5 pmol dengue probe in the reaction mixture from Superscript Ill Platinum One-Step Quantitative RT-PCR Kit (Invitrogen, Thermo Fisher Scientific), consisting of 0.5 µl Superscript III RT/Platinum mix, 12.5 µl 2× reaction mix and 0.05 µl ROX reference dye. The one-step RT–qPCR comprises a 30 min RT step at 50 °C and 2 min of Taq polymerase activation at 94 °C, followed by 40 cycles of PCR at 94 °C for 5 s and 53 °C for 35 s performed in an ABI 7500DX Fast Real Time PCR system. Each assay included positive, negative and non-template controls. The RNA copy number was calculated from a standard curve of tenfold serial dilutions made from RNA in vitro transcripts consisting of DENV-1 with known copy numbers. The LLOQ was 100 genomic copies per reaction.
This sample size was sufficient to detect a significant difference in the number of infected animals in each of the groups as low as 83%. […] Sample processing and conducting of assays was performed by laboratory technicians not involved in the treatment/manipulation of the animals.

COc1cc(N[C@H](C(=O)c2c[nH]c3ccc(OC(F)(F)F)cc23)c2ccc(Cl)cc2OC)cc(S(C)(=O)=O)c1 [JNJ-1802]
DENV RNA (6 mg per kg per day q.d.): remained undetectable during the complete study period
qRT-PCR Assay Result (animal R7, Day 0): Negative
qRT-PCR Assay Average GE/mL (animal R7, Day 0): 0.00E+00 GE/mL
qRT-PCR Assay Result (animal R7, Day 1): Negative
qRT-PCR Assay Average GE/mL (animal R7, Day 1): 0.00E+00 GE/mL
qRT-PCR Assay Result (animal R7, Day 2): Negative
qRT-PCR Assay Average GE/mL (animal R7, Day 2): 0.00E+00 GE/mL
qRT-PCR Assay Result (animal R7, Day 3): Negative
qRT-PCR Assay Average GE/mL (animal R7, Day 3): 0.00E+00 GE/mL
qRT-PCR Assay Result (animal R7, Day 4): Negative
qRT-PCR Assay Average GE/mL (animal R7, Day 4): 0.00E+00 GE/mL
qRT-PCR Assay Result (animal R7, Day 5): Negative
qRT-PCR Assay Average GE/mL (animal R7, Day 5): 0.00E+00 GE/mL
qRT-PCR Assay Result (animal R7, Day 6): Negative
qRT-PCR Assay Average GE/mL (animal R7, Day 6): 0.00E+00 GE/mL
qRT-PCR Assay Result (animal R7, Day 7): Negative
qRT-PCR Assay Average GE/mL (animal R7, Day 7): 0.00E+00 GE/mL
qRT-PCR Assay Result (animal R7, Day 8): Negative
qRT-PCR Assay Average GE/mL (animal R7, Day 8): 0.00E+00 GE/mL
qRT-PCR Assay Result (animal R7, Day 9): Negative
qRT-PCR Assay Average GE/mL (animal R7, Day 9): 0.00E+00 GE/mL
qRT-PCR Assay Result (animal R7, Day 10): Negative
qRT-PCR Assay Average GE/mL (animal R7, Day 10): 0.00E+00 GE/mL
qRT-PCR Assay Result (animal R7, Day 11): Negative
qRT-PCR Assay Average GE/mL (animal R7, Day 11): 0.00E+00 GE/mL
qRT-PCR Assay Result (animal R7, Day 14): Negative
qRT-PCR Assay Average GE/mL (animal R7, Day 14): 0.00E+00 GE/mL
qRT-PCR Assay Result (animal R7, Day 29): Negative
qRT-PCR Assay Average GE/mL (animal R7, Day 29): 0.00E+00 GE/mL
qRT-PCR Assay Result (animal R8, Day 0): Negative
qRT-PCR Assay Average GE/mL (animal R8, Day 0): 0.00E+00 GE/mL
qRT-PCR Assay Result (animal R8, Day 1): Negative
qRT-PCR Assay Average GE/mL (animal R8, Day 1): 0.00E+00 GE/mL
qRT-PCR Assay Result (animal R8, Day 2): Negative
qRT-PCR Assay Average GE/mL (animal R8, Day 2): 0.00E+00 GE/mL
qRT-PCR Assay Result (animal R8, Day 3): Negative
qRT-PCR Assay Average GE/mL (animal R8, Day 3): 0.00E+00 GE/mL
qRT-PCR Assay Result (animal R8, Day 4): Negative
qRT-PCR Assay Average GE/mL (animal R8, Day 4): 0.00E+00 GE/mL
qRT-PCR Assay Result (animal R8, Day 5): Negative
qRT-PCR Assay Average GE/mL (animal R8, Day 5): 0.00E+00 GE/mL
qRT-PCR Assay Result (animal R8, Day 6): Negative
qRT-PCR Assay Average GE/mL (animal R8, Day 6): 0.00E+00 GE/mL
qRT-PCR Assay Result (animal R8, Day 7): Negative
qRT-PCR Assay Average GE/mL (animal R8, Day 7): 0.00E+00 GE/mL
qRT-PCR Assay Result (animal R8, Day 8): Negative
qRT-PCR Assay Average GE/mL (animal R8, Day 8): 0.00E+00 GE/mL
qRT-PCR Assay Result (animal R8, Day 9): Negative
qRT-PCR Assay Average GE/mL (animal R8, Day 9): 0.00E+00 GE/mL
qRT-PCR Assay Result (animal R8, Day 10): Negative
qRT-PCR Assay Average GE/mL (animal R8, Day 10): 0.00E+00 GE/mL
qRT-PCR Assay Result (animal R8, Day 11): Negative
qRT-PCR Assay Average GE/mL (animal R8, Day 11): 0.00E+00 GE/mL
qRT-PCR Assay Result (animal R8, Day 14): Negative
qRT-PCR Assay Average GE/mL (animal R8, Day 14): 0.00E+00 GE/mL
qRT-PCR Assay Result (animal R8, Day 29): Negative
qRT-PCR Assay Average GE/mL (animal R8, Day 29): 0.00E+00 GE/mL
qRT-PCR Assay Result (animal R9, Day 0): Negative
qRT-PCR Assay Average GE/mL (animal R9, Day 0): 0.00E+00 GE/mL
qRT-PCR Assay Result (animal R9, Day 1): Negative
qRT-PCR Assay Average GE/mL (animal R9, Day 1): 0.00E+00 GE/mL
qRT-PCR Assay Result (animal R9, Day 2): Negative
qRT-PCR Assay Average GE/mL (animal R9, Day 2): 0.00E+00 GE/mL
qRT-PCR Assay Result (animal R9, Day 3): Negative
qRT-PCR Assay Average GE/mL (animal R9, Day 3): 0.00E+00 GE/mL
qRT-PCR Assay Result (animal R9, Day 4): Negative
qRT-PCR Assay Average GE/mL (animal R9, Day 4): 0.00E+00 GE/mL
qRT-PCR Assay Result (animal R9, Day 5): Negative
qRT-PCR Assay Average GE/mL (animal R9, Day 5): 0.00E+00 GE/mL
qRT-PCR Assay Result (animal R9, Day 6): Negative
qRT-PCR Assay Average GE/mL (animal R9, Day 6): 0.00E+00 GE/mL
qRT-PCR Assay Result (animal R9, Day 7): Negative
qRT-PCR Assay Average GE/mL (animal R9, Day 7): 0.00E+00 GE/mL
qRT-PCR Assay Result (animal R9, Day 8): Negative
qRT-PCR Assay Average GE/mL (animal R9, Day 8): 0.00E+00 GE/mL
qRT-PCR Assay Result (animal R9, Day 9): Negative
qRT-PCR Assay Average GE/mL (animal R9, Day 9): 0.00E+00 GE/mL
qRT-PCR Assay Result (animal R9, Day 10): Negative
qRT-PCR Assay Average GE/mL (animal R9, Day 10): 0.00E+00 GE/mL
qRT-PCR Assay Result (animal R9, Day 11): Negative
qRT-PCR Assay Average GE/mL (animal R9, Day 11): 0.00E+00 GE/mL
qRT-PCR Assay Result (animal R9, Day 14): Negative
qRT-PCR Assay Average GE/mL (animal R9, Day 14): 0.00E+00 GE/mL
qRT-PCR Assay Result (animal R9, Day 29): Negative
